Like-named read-outs stand apart in the source and are kept apart here.
What was measured:
[1] = biological target: T1, Vibrio cholerae neuraminidase (Vibrio cholerae serotype O1, UniProt P0C6E9); assay: biochemical; assay type: biochemical
T1 construct: purchased Sigma

[2] = biological target: T2, Salmonella typhimurium neuraminidase (Salmonella typhimurium, UniProt P29768); assay: biochemical; assay type: biochemical
T2 construct: purchased Sigma

[3] = biological target: Clostridium perfringens neuraminidase; assay type: biochemical; conditions: for IC50: pH 6.5, read-out: Solution phase IC50, Clostridium perfringens
[4] = biological target: T2, Salmonella typhimurium neuraminidase; conditions: value in brackets marked lit; read-out: Solution phase IC50, Salmonella typhimurium, literature value; cited from earlier work
α2,6-sialyltransferase [5] = biological target: T3, α2,6-sialyltransferase (Rattus norvegicus, UniProt P13721); assay: Sialyltransferase competitive assay; assay type: biochemical; set-up: purchased Calbiochem
T3 sequence (P13721 1-403): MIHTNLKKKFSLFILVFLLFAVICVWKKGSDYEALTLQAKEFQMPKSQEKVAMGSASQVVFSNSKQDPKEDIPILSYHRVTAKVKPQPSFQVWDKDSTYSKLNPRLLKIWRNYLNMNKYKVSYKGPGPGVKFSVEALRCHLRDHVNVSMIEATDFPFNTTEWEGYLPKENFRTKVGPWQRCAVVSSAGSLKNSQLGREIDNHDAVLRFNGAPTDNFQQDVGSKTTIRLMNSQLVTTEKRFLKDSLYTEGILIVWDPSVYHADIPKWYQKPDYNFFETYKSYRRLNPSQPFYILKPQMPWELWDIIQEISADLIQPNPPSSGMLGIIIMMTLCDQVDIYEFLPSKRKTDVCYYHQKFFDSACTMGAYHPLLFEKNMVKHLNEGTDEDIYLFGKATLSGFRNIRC

α2,6-sialyltransferase [6] = biological target: T3, α2,6-sialyltransferase; conditions: read-out: KM value; literature (Gross et al. 1989); cited from earlier work
α2,3-sialyltransferase = assay: Substrate recognition by sialyltransferase (FRET donor/acceptor); assay type: biochemical; conditions: acceptor 0.2 mM, donor 0.1 mM, sialyltransferase 0.2 mU, FIG. 15
α2,6-sialyltransferase [7] = biological target: T3, α2,6-sialyltransferase; assay: as above; assay type: biochemical; set-up: purchased Calbiochem; conditions: acceptor 0.2 mM, donor 0.1 mM, sialyltransferase 0.2 mU, FIG. 15

T1 sequence (P0C6E9 25-781 limits assumed): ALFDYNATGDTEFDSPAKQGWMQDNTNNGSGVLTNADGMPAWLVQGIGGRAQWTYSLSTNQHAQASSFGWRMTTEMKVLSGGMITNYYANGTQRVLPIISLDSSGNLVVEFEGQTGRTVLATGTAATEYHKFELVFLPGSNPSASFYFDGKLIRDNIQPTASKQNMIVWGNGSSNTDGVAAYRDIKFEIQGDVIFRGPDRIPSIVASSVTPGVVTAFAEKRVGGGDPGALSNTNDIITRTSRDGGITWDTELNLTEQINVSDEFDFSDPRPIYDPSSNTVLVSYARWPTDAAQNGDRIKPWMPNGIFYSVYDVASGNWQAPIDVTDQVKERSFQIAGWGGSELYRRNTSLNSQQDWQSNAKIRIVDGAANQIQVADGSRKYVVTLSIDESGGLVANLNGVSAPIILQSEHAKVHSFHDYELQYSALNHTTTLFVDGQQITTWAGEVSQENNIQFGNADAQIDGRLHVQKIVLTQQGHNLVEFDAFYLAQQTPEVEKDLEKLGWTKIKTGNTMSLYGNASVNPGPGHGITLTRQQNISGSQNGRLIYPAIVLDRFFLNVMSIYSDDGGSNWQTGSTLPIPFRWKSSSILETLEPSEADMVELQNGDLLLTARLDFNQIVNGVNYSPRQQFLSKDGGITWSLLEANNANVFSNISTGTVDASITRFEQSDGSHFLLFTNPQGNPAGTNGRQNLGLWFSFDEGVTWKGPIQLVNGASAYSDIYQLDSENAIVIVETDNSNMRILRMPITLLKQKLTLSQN
T2 sequence (P29768 whole entry): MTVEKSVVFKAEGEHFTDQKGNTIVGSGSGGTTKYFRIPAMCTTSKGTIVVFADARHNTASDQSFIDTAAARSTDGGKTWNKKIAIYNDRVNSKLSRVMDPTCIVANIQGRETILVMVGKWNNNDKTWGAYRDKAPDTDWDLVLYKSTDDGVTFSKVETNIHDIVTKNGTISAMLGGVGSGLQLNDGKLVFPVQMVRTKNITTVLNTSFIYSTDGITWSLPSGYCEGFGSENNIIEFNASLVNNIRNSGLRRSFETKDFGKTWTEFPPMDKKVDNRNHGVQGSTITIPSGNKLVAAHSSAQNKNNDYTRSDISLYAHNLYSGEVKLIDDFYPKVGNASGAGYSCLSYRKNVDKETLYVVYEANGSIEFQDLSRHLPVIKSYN

Compound | IC50 [1] [µM] | IC50 [2] [µM] | IC50 [3] [µM] | further results
CC(=O)NC1C(O)CC(O)(C(=O)O)OC1[C@H](O)[C@H](O)CO (stereo partly shown) | > 2000 | > 2000 | > 2000 | 
CC(=O)NC1C(N)C=C(C(=O)O)OC1[C@H](O)[C@H](O)CO (stereo partly shown) | > 2000 | > 2000 | > 2000 | 
CC1=NC2C(O)C=C(C(=O)O)OC2C(CC(=O)N[C@@H](C(N)=O)C2CCCCC2)O1 (stereo partly shown) | > 2000 | > 2000 | 1600 | 
CC(=O)NC1C(NC(=N)N)C=C(C(=O)O)OC1[C@H](OC(N)=O)[C@H](O)CO (stereo partly shown) | 250 | > 2000 | > 2000 | 
CC(=O)NC1C(O)C=C(C(=O)O)OC1[C@H](O)[C@H](O)CO (stereo partly shown) [2-deoxy-2,3-dehydro-N-acetylneuraminic acid] |  | 310 | 4 | IC50 [4]: 350 µM; Inhibition of Vibrio cholerae neuraminidase [1]: good inhibitor; Inhibition of Salmonella typhimurium neuraminidase [2]: good inhibitor; Inhibition of Clostridium perfringens neuraminidase [3]: good inhibitor
CC(=O)NC1C(NC(=N)N)C=C(C(=O)O)OC1[C@H](O)[C@H](O)CO (stereo partly shown) [4-guanidino-2-deoxy-2,3-didehydro-N-acetylneuraminic acid] | 200 | > 2000 |  | Inhibition of Vibrio cholerae neuraminidase [1]: inhibitor
CC(=O)NC1C(O)CC(OP(=O)(O)OC[C@H]2O[C@@H](n3ccc(N)nc3=O)[C@@H](O)C2O)(C(=O)O)OC1[C@H](O)[C@H](O)CO (stereo partly shown) [CMP-Neu5Ac, cytidine monophosphate N-acetylneuraminic acid] |  |  |  | IC50 (α2,6-sialyltransferase [5]): 85 µM; Km (α2,6-sialyltransferase [6]): 45 µM
NC(=O)C(Cc1ccc(O)c([N+](=O)[O-])c1)NC(=O)Cc1cc(=O)oc2cc(O)ccc12 (stereo not shown) [Compound 41, 3-(4-Hydroxy-3-nitro-phenyl)-2-[2-(7-hydroxy-2-oxo-2H-chromen-4-yl)-acetylamino]-propionamide] |  |  |  | melting point: 203 °C
NC(=O)C(Cc1ccc(O)c([N+](=O)[O-])c1)NC(=O)CCC(=O)NCCOCCOCCNC(=O)Cc1cc(=O)oc2cc(O)ccc12 (stereo not shown) [Compound 42, N-[1-Carbamoyl-2-(4-hydroxy-3-nitro-phenyl)-ethyl]-N′-[2-(2-{2-[2-(7-hydroxy-2-oxo-2H-chromen-4-yl)-acetylamino]-ethoxy}-ethoxy)-ethyl]-succinamide] |  |  |  | melting point: 115 °C
N[C@@H](Cc1ccc(O)c([N+](=O)[O-])c1)C(=O)NCCO[C@@H]1O[C@H](CO)[C@@H](O[C@@H]2O[C@H](CO)[C@H](O)[C@H](O)[C@H]2O)[C@H](O)[C@H]1O [acceptor 64, 2-(3-Nitro-L-tyrosyl-amide)ethyl β-D-galactopyransyl-(1→4)-O-β-D-glucopyranoside] |  |  |  | Substrate recognition by α2,3-sialyltransferase (α2,3-sialyltransferase): poor substrate recognition; Substrate recognition by α2,6-sialyltransferase (α2,6-sialyltransferase [7]): poor substrate recognition
CC(=O)N[C@H]1[C@H](OCCNC(=O)[C@@H](N)Cc2ccc(O)c([N+](=O)[O-])c2)O[C@H](CO)[C@@H](O[C@@H]2O[C@H](CO)[C@H](O)[C@H](O)[C@H]2O)[C@@H]1O [acceptor 69, 2-(3-Nitro-L-tyrosyl-amide)ethyl β-D-galactopyransyl-(1→4)-O-2-acetamido-2-deoxy-β-D-glucopyranoside] |  |  |  | Substrate recognition by α2,3-sialyltransferase (α2,3-sialyltransferase): good substrates; Substrate recognition by α2,6-sialyltransferase (α2,6-sialyltransferase [7]): good substrates
CMP-5-(7-hydroxy-4-coumarinyl-acetamido)-NeuAc [donor 55] |  |  |  | Substrate recognition by α2,3-sialyltransferase (α2,3-sialyltransferase): good substrates; Substrate recognition by α2,6-sialyltransferase (α2,6-sialyltransferase [7]): good substrates
